{"source": "patent US4921866A", "about": "“1,3-dioxanes” (Imperial Chemical Industries plc, priority 1987, dated 1990)", "key": {"[1]": {"test": "observation of signs of toxicity in rats in test (f)", "format": "in vivo, rat", "settings": "oral dose of 100 mg/kg to rats"}, "[2]": {"molecular_target": "T1, TXA2 receptor (Rattus norvegicus, UniProt P34978)", "T1 construct": "The rat aortic strip model; from tissue; host or cells: rat aortic strip", "T1 sequence (P34978 1-341)": "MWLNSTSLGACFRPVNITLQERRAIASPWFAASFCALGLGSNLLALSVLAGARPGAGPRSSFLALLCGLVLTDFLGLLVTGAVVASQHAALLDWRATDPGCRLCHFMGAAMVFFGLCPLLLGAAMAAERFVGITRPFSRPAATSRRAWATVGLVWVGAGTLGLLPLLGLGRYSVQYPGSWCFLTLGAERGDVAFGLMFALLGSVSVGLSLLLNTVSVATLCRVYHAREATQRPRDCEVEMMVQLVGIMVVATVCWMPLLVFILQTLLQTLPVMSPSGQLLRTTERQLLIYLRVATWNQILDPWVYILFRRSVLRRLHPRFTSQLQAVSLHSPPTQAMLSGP", "test": "test (a): rat aortic strip model, U46619 as agonist", "format": "cell-based", "settings": "read-out: pA2 (converted)", "source_text": "(a) The rat aortic strip model (based on that devised by Piper and Vane (Nature, 1969, 223, 29-35) in the rabbit) using as agonist the TXA2 mimetic agent known as U46619 (described by R. L. Jones et alia in \"Chemistry, Biochemistry and Pharmacological Activity of Prostanoids\" edited by S. M. Roberts and F. Scheinmann, at page 211; Pergamon Press, 1979);"}, "[3]": {"test_system": "TXA2 synthase", "test": "test (f): TXB2 production in blood samples from dosed laboratory animals", "format": "in vivo, rat", "settings": "3 hours following an oral dose of 100 mg/kg to rats", "procedure": "(§1) The samples treated with anti-coagulant are first incubated at 37° C. with collegen (at about 100 micro M), then mixed with the cyclooxygenase inhibitor indomethancin (at about […]), centrifuged and the level of the TXA2 metabolite TXB2 determined by a standard radioimmunoassay technique. By comparison of the amount of TXB2 present in the plasma from animals dosed with test compound with that in the plasma of a control group dosed with placebo, the TXA2 synthase inhibitory properties may be assessed."}, "[4]": {"molecular_target": "T2, TXA2 receptor (Homo sapiens, UniProt P21731)", "T2 construct": "aggregating human, citrated, platelet-rich plasma; endogenous in cells; host or cells: human platelets in citrated platelet-rich plasma", "T2 sequence (P21731 1-343)": "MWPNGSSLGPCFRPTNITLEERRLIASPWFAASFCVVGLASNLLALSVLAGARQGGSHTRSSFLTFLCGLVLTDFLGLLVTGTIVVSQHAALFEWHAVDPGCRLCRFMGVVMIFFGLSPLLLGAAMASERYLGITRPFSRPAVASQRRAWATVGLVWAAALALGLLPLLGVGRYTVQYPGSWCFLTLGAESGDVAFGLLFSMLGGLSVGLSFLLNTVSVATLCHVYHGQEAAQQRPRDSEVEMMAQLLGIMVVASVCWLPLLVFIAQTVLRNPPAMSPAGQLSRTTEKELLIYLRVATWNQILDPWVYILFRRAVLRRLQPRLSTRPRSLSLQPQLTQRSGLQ", "test": "test (b): blood platelet aggregation test, U46619 stimulated, human platelet-rich plasma", "format": "cell-based", "source_text": "(b) a blood platelet aggregation test based on that described by Born (Nature, 1962, 194, 927-929) and involving:\n(i) aggregating human, citrated, platelet-rich plasma by addition of the TXA2 mimetic agent U46619 so that a dose-response curve is generated;\n(ii) generating a dose-response curve for U46619 stimulated platelet aggregation in the presence of increasing amounts of test compound (generally in the range 10^-5 M to 10^-10 M); and\n(iii) calculating a KB value indicating potency of TXA2 antagonism for the test compound, average over several concentrations, from the calculated 50% response value for U46619 aggregation in the presence and absence of test compound; or […]"}, "[5]": {"molecular_target": "T3, TXA2 synthase (Homo sapiens, UniProt P24557)", "T3 construct": "using a human platelet microsomal TXA2 synthase preparation; from tissue; host or cells: human platelet microsomes", "T3 sequence (P24557 1-533)": "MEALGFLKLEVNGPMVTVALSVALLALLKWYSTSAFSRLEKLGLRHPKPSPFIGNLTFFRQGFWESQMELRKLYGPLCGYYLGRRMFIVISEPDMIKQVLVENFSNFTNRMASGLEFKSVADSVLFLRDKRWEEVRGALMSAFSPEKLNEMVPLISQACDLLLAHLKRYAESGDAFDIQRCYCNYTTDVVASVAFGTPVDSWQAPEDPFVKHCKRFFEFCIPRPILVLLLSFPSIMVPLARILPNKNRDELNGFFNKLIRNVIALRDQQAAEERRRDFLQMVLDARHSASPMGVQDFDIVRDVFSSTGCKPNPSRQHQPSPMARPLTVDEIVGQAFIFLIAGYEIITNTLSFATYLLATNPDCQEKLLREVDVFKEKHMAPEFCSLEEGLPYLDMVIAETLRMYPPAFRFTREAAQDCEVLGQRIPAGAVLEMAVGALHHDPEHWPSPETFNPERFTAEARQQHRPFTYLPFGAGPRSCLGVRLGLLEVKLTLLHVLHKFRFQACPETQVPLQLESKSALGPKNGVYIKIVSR", "test": "test (e): in vitro TXA2 synthase inhibition, human platelet microsomal TXA2 synthase preparation", "format": "biochemical"}, "[6]": {"test": "TXA2 antagonist and/or TXA2 synthase inhibitory properties (general statement, standard tests)", "settings": "qualitative statement", "procedure": "as §1"}}, "note": "Entries after “also recorded” stand apart in the source; their conditions may differ.", "data": [{"compound": "O=C(O)CC/C=C\\C[C@@H]1CO[C@H](c2cccnc2)O[C@@H]1c1ccccc1O", "note": "(relative stereo) [Example 1, 4(Z)-6-([2,4,5-cis]-4-o-hydroxyphenyl-2-[3-pyridyl]-1,3-dioxan-5-yl)hexenoic acid]", "values": [{"measurement": "observable signs of toxicity to the test animals", "setting": "[1]", "result": "without any observable signs of toxicity"}, {"measurement": "Kb", "setting": "[2]", "result": 79.4, "unit": "nM"}, {"measurement": "inhibition of TXB2 production", "setting": "[3]", "result": "essentially complete inhibition of TXB2 production"}, {"measurement": "Kb", "setting": "[4]", "result": 17, "unit": "nM"}, {"measurement": "IC50", "setting": "[5]", "result": 3140, "unit": "nM"}, {"measurement": "TXA2 antagonist and/or TXA2 synthase inhibitory properties", "setting": "[6]", "result": "combined antagonist and TXA2 synthase inhibitory properties; also recorded: both TXA2 antagonist and TXA2 synthase inhibitory properties"}]}, {"compound": "O=C(O)CCC/C=C\\C[C@@H]1CO[C@H](Cc2cccnc2)O[C@@H]1c1ccccc1O", "note": "(relative stereo) [Example 2, 5(Z)-7-([2,4,5-cis]-4-o-hydroxyphenyl-2-[3-pyridylmethyl]-1,3-dioxan-5-yl)heptenoic acid]", "values": [{"measurement": "TXA2 antagonist and/or TXA2 synthase inhibitory properties", "setting": "[6]", "result": "combined antagonist and TXA2 synthase inhibitory properties"}]}, {"compound": "O=C(O)CC/C=C\\C[C@@H]1CO[C@H](c2ccccn2)O[C@@H]1c1ccccc1O", "note": "(relative stereo) [Example 4, 4(Z)-6-([2,4,5-cis]-4-o-hydroxyphenyl-2-[2-pyridyl]-1,3-dioxan-5-yl)hexenoic acid]", "values": [{"measurement": "TXA2 antagonist and/or TXA2 synthase inhibitory properties", "setting": "[6]", "result": "TXA2 antagonist properties"}]}, {"compound": "O=C(O)CCCC/C=C\\C[C@@H]1CO[C@H](c2ccncc2)O[C@@H]1c1ccccc1O", "note": "(relative stereo) [Example 9, 6(Z)-8-([2,4,5-cis]-4-o-hydroxyphenyl-2-[4-pyridyl]-1,3-dioxan-5-yl)octenoic acid]", "values": [{"measurement": "TXA2 antagonist and/or TXA2 synthase inhibitory properties", "setting": "[6]", "result": "predominantly TXA2 synthase inhibitory properties"}]}, {"compound": "O=C(O)CC/C=C\\C[C@@H]1CO[C@H](Cc2ccccn2)O[C@@H]1c1ccccc1O", "note": "(relative stereo) [Example 11, 4(Z)-6-([2,4,5-cis]-4-o-hydroxyphenyl-2-[2-pyridylmethyl]-1,3-dioxan-5-yl)hexenoic acid]", "values": [{"measurement": "TXA2 antagonist and/or TXA2 synthase inhibitory properties", "setting": "[6]", "result": "TXA2 antagonist properties"}]}, {"compound": "O=C(O)CC/C=C\\C[C@@H]1CO[C@H](Cc2cccnc2)O[C@@H]1c1ccccc1O", "note": "(relative stereo) [Example 12, 4(Z)-6-([2,4,5-cis]-4-o-hydroxyphenyl-2-[3-pyridylmethyl]-1,3-dioxan-5-yl)hexenoic acid]", "values": [{"measurement": "TXA2 antagonist and/or TXA2 synthase inhibitory properties", "setting": "[6]", "result": "combined antagonist and TXA2 synthase inhibitory properties"}]}, {"compound": "O=C(O)CCC/C=C\\C[C@@H]1CO[C@H](Cc2cccnc2)O[C@@H]1c1ccccc1", "note": "(relative stereo) [Example 16, 5(Z)-7-(4-phenyl-2-[3-pyridylmethyl]-1,3-dioxan-5-yl)heptenoic acid]", "values": [{"measurement": "TXA2 antagonist and/or TXA2 synthase inhibitory properties", "setting": "[6]", "result": "predominantly TXA2 synthase inhibitory properties"}]}, {"compound": "CC(C)(c1cccnc1)[C@H]1OC[C@@H](C/C=C\\CCC(=O)O)[C@@H](c2ccccc2O)O1", "note": "(relative stereo) [Example 17, 4(Z)-6-([2,4,5-cis]-4-o-hydroxyphenyl-2-[1-(3-pyridyl)-1-methylethyl]-1,3-dioxan-5-yl)hexenoic acid]", "values": [{"measurement": "TXA2 antagonist and/or TXA2 synthase inhibitory properties", "setting": "[6]", "result": "combined antagonist and TXA2 synthase inhibitory properties"}]}, {"compound": "CC(C)(Cc1cccnc1)[C@H]1OC[C@@H](C/C=C\\CCC(=O)O)[C@@H](c2ccccc2O)O1", "note": "(relative stereo) [Example 18, 4(Z)-6-([2,4,5-cis]-4-o-hydroxyphenyl-2-[2-(3-pyridyl)-1,1-dimethylethyl]-1,3-dioxan-5-yl)hexenoic acid]", "values": [{"measurement": "TXA2 antagonist and/or TXA2 synthase inhibitory properties", "setting": "[6]", "result": "combined antagonist and TXA2 synthase inhibitory properties"}]}, {"compound": "CC(C)(c1cccnc1)[C@H]1OC[C@@H](C/C=C\\CCCC(=O)O)[C@@H](c2ccccc2O)O1", "note": "(relative stereo) [Example 19, 5(Z)-7-([2,4,5-cis]-4-o-hydroxyphenyl-2[1-(3-pyridyl)-1-methylethyl]-1,3-dioxan-5-yl)heptenoic acid]", "values": [{"measurement": "TXA2 antagonist and/or TXA2 synthase inhibitory properties", "setting": "[6]", "result": "combined antagonist and TXA2 synthase inhibitory properties"}]}, {"compound": "CC(C)(Oc1cccnc1)[C@H]1OC[C@@H](C/C=C\\CCC(=O)O)[C@@H](c2ccccc2O)O1", "note": "(relative stereo) [Example 23, 4(Z)-6-([2,4,5-cis]-4-o-hydroxyphenyl-2-[1-(3-pyridyloxy)-1-methylethyl]-1,3-dioxan-5-yl)hexenoic acid]", "values": [{"measurement": "TXA2 antagonist and/or TXA2 synthase inhibitory properties", "setting": "[6]", "result": "combined antagonist and TXA2 synthase inhibitory properties"}]}]}
